{"source": "paper PMC6927504", "about": "“Screening of House Dust from Chinese Homes for Chemicals with Liver X Receptors Binding Activities and Characterization of Atherosclerotic Activity Using an in Vitro Macrophage Cell Line and ApoE^−/− Mice” (Environmental Health Perspectives, 2019)", "key": {"human LXRα [1]": {"biological_target": "T1, human LXRα (Homo sapiens, UniProt Q13133)", "T1 construct": "expressed in transfected cells; host or cells: Saccharomyces cerevisiae Y187", "T1 sequence (Q13133 205-447)": "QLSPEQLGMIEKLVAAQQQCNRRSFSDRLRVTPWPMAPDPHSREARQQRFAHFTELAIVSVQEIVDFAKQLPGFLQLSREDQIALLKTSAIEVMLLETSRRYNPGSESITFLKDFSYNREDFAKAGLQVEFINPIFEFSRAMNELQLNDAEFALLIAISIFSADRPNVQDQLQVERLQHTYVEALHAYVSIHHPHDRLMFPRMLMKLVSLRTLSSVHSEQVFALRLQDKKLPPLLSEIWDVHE", "assay": "cell-based"}, "human LXRβ [2]": {"biological_target": "T2, human LXRβ (Homo sapiens, UniProt P55055)", "T2 sequence (P55055 219-460)": "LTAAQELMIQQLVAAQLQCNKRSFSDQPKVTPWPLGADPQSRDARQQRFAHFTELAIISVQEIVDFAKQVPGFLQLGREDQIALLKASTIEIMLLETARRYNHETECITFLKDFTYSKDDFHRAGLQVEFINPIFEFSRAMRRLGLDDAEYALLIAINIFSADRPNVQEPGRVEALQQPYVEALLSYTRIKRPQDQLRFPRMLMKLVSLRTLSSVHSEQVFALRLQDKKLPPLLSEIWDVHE", "assay": "cell-based"}, "human LXRβ [3]": {"biological_target": "T2, human LXRβ", "assay": "Yeast two-hybrid assay (LXRβ LBD with coactivator TIF2, β-galactosidase readout)"}, "human LXRα [4]": {"biological_target": "T3, human LXRα (Homo sapiens, UniProt Q13133)", "T3 construct": "the full-length human LXRα gene was amplified by polymerase chain reaction (PCR); made in house; host or cells: E. coli BL21", "T3 sequence (Q13133 1-447)": "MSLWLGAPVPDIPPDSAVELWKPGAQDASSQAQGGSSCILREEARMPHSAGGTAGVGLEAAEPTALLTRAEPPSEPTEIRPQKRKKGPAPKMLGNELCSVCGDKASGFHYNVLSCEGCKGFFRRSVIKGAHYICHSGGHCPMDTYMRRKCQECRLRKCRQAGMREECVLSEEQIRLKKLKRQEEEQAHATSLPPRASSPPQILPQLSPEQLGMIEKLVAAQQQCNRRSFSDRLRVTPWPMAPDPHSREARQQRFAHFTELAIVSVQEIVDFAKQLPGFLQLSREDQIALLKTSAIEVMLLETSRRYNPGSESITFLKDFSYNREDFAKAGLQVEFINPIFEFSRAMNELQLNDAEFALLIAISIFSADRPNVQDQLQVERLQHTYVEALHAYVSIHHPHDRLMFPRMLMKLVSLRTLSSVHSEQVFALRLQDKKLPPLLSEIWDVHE", "type": "binding"}, "ABCA1": {"tested_on": "ABCA1", "assay": "qRT-PCR of LXR target gene ABCA1 in RAW264.7 macrophages", "type": "cell-based", "settings": "TO901317 at 5–100 nM with TPHP 10,000 nM", "experimental": "(§1) RAW264.7 cells were obtained from the National Infrastructure of Cell Line Resource of Beijing, China, and the cells used for the experiment were cultured for at least three passages. Dulbecco’s Modified Eagle’s Medium (DMEM)-F12 medium containing 10% fetal bovine serum (FBS) was employed to culture the RAW264.7 cells. RAW264.7 cells were incubated at 37°C with 5% carbon dioxide. The RAW264.7 cells were plated at 2.5×10^5 cells/well (6-well plates), 6.0×10^4 cells/well (24-well plates), and 10^4 cells/well (96-well plates). The RAW264.7 cells were plated and grown overnight; then the medium was removed and fresh DMEM-F12 contained with 0.1% DMSO (control; n=3 ) or TPHP at the concentrations of 1–20,000 nM ( n=3 per group) was added. […] Then the cells were used for the quantitative reverse transcription (qRT)-PCR, cellular cholesterol efflux assay, and foam cell formation experiment.\n(§2) Total RNA was isolated from RAW264.7 cells and mouse peritoneal macrophages using TRIzol reagent according to the manufacturer’s instructions. Then a Nanovue Plus™ spectrophotometer (GE Healthcare Life Science) was used to analyze the concentration, quality, and purity of the RNA. Total RNA ( 1μg ) was mixed with oligo deoxythymine (dT) ( 1μL ) at 70°C for 5 min and then combined with a mixture containing Moloney murine leukemia virus (MMLV) reverse transcriptase ( 1μL ), deoxy-ribonucleoside triphosphate (dNTP) ( 1.25μL ), Recombinant RNasin® Ribonuclease Inhibitor (Promega) ( 0.65μL ), and MMLV buffer ( 5μL ) at 42°C for 60 min. The SYBR® Green PCR Kit (TOYOBO) was used for RT-PCR analysis. Real-time fluorescence detection was performed using the StepOnePlus™ sequence detection system (Applied Biosystems). […] The following primers were designed and purchased from Sangon Biotech:\n(§3) • actin: 5′-[…]-3′ and 5′-[…]-3′ ATP-binding cassette transporter A1 (ABCA1): 5′-[…]-3′ and 5′-[…]-3′ • ATP-binding cassette transporter G1 (ABCG1): 5′-[…]-3′ and 5′-[…]-3′."}, "ABCG1": {"tested_on": "ABCG1", "assay": "qRT-PCR of LXR target gene ABCG1 in RAW264.7 macrophages", "type": "cell-based", "settings": "TO901317 at 5–100 nM with TPHP 10,000 nM", "experimental": "as §1, §2, §3"}, "atherosclerotic mice": {"tested_on": "atherosclerotic mice", "parameters": "method as in Joseph et al. 2002", "settings": "ref Joseph et al. 2002; cited from earlier work"}, "[5]": {"settings": "dust standard reference material SRM2585"}, "[6]": {"settings": "range over indoor dust samples (Table S4)"}}, "note": "Where two headings read alike, the source gives them in different places."}
{"smiles": "CCCCC(CC)COP(=O)(Oc1ccccc1)Oc1ccccc1", "note": "(centres unmarked) [EHDPP, 2-ethylhexyl diphenyl phosphate]", "values": [{"measurement": "IC50", "setting": "human LXRα [1]", "value": 5.69, "unit": "µM"}, {"measurement": "Contribution to the LXRα-antagonist activity of SRM2585", "setting": "human LXRα [1]; [5]", "value": 3.01, "unit": "%"}, {"measurement": "Share of the LXRα-antagonist activity of indoor dust explained by the chemical", "setting": "human LXRα [1]; [6]", "value": "0.01–25.02%"}, {"measurement": "IC50", "setting": "human LXRβ [2]", "value": 2.17, "unit": "µM"}, {"measurement": "Contribution to the LXRβ-antagonist activity of SRM2585", "setting": "human LXRβ [3]; [5]", "value": 1.55, "unit": "%"}, {"measurement": "Share of the LXRβ-antagonist activity of indoor dust explained by the chemical", "setting": "human LXRβ [3]; [6]", "value": "0.01–22.92%"}]}
{"smiles": "O=S(=O)(c1ccccc1)N(CC(F)(F)F)c1ccc(C(O)(C(F)(F)F)C(F)(F)F)cc1", "note": "[TO901317]", "values": [{"measurement": "Average percentage pulled down of the spiked concentration", "setting": "human LXRα [4]; His-TF-LXRα group", "value": 89, "unit": "%"}, {"measurement": "Average percentage pulled down of the spiked concentration", "setting": "human LXRα [4]; control group (His-TF protein without LXRα)", "value": 10, "unit": "%"}, {"measurement": "Recovery in pull-down by recombinant LXRα", "setting": "human LXRα [4]; spiked at 0.25 μg/L", "value": "100%±3%"}, {"measurement": "Recovery in pull-down by recombinant LXRα", "setting": "human LXRα [4]; spiked at 2.5 μg/L", "value": "85%±5%"}, {"measurement": "Recovery in pull-down by recombinant LXRα", "setting": "human LXRα [4]; spiked at 25 μg/L", "value": "80%±0.7%"}, {"measurement": "Recovery in pull-down by recombinant LXRα", "setting": "human LXRα [4]; spiked at 250 μg/L", "value": "92%±4%"}, {"measurement": "ABCA1 gene expression in cells co-exposed to TPHP, versus TPHP alone", "setting": "ABCA1", "value": "dose-dependently higher"}, {"measurement": "ABCG1 gene expression in cells co-exposed to TPHP, versus TPHP alone", "setting": "ABCG1", "value": "dose-dependently higher"}]}
{"smiles": "O=C(O)Cc1cccc(OCCCN(Cc2cccc(C(F)(F)F)c2Cl)CC(c2ccccc2)c2ccccc2)c1", "note": "[GW3965]", "values": [{"measurement": "Atherosclerotic plaques", "setting": "atherosclerotic mice", "value": "promoted regression of atherosclerotic plaques"}, {"measurement": "Foam cell formation", "setting": "atherosclerotic mice", "value": "inhibited foam cell formation"}]}
{"smiles": "CCOC(=O)c1ccc(CN(Cc2ccc(-c3cccc(S(C)(=O)=O)c3)cc2)S(=O)(=O)c2c(C)cc(C)cc2C)o1", "note": "[SR9238, reference compound]", "values": [{"measurement": "IC50", "setting": "human LXRα [1]; read-out: IC50 for LXRα (antagonist activity)", "value": 0.825, "unit": "µM"}, {"measurement": "IC50", "setting": "human LXRβ [2]", "value": 0.446, "unit": "µM"}]}
{"smiles": "O=[N+]([O-])c1ccc(O)cc1", "note": "[PNP, p-nitrophenol]", "values": [{"measurement": "EC50", "setting": "human LXRα [1]; agonist mode, β-galactosidase activity, n=3", "value": 14, "unit": "µM"}, {"measurement": "EC50", "setting": "human LXRβ [3]", "value": 15.1, "unit": "µM"}]}
